Two compounds from PMC4721548, “Conformational heterogeneity of the Roc domains in C. tepidum Roc–COR and implications for human LRRK2 Parkinson mutations” (Bioscience Reports, 2015) can be followed below.

In assay [1] the target is T1, CtRocCOR (Chlorobaculum tepidum, UniProt Q8KC98).
T1 construct: gene CT1526; RocCOR tandem, AA 412-946, recombinant, homodimer; MTSSL spin-labelled for EPR
The experiment in a line: GTPase activity assay. The class given is biochemical.

In assay [2] the target is T1, CtRocCOR. The experiment in a line: DEER pulse EPR inter-spin distance change upon nucleotide binding. The conditions noted are these: 1 mM GppNHp, 150 mM NaCl, 30 mM Tris/HCl, 5 mM MgCl2, pH 7.5, 5% glycerol, 50 K; protein spin-labelled with MTSSL at native Cys600 (C600R1).

T1 sequence (Q8KC98 entry or part of it): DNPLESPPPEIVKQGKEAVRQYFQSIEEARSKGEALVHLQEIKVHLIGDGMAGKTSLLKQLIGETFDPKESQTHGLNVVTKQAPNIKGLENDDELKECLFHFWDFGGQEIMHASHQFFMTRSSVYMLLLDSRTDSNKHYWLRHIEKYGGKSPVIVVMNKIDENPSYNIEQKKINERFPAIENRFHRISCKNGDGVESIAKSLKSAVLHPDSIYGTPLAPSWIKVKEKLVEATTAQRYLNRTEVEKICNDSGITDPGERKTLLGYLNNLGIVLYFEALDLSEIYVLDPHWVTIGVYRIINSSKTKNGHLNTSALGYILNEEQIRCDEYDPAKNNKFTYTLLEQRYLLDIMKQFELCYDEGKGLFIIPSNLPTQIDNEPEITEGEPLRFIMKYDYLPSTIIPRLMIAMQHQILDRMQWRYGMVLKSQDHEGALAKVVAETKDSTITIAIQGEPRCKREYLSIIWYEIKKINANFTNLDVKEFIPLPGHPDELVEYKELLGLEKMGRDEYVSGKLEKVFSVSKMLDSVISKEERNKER

In the case of `Nc1nc2c(ncn2[C@@H]2O[C@H](COP(=O)(O)OP(=O)(O)OP(=O)(O)O)[C@@H](O)[C@H]2O)c(=O)[nH]1` [GTP], the GTPase activity assay entry in assay [1] was “No significant impairment of GTPase activity by the mutations in comparison with wild-type”.
For `Nc1nc2c(ncn2[C@@H]2O[C@H](COP(=O)(O)OP(=O)(O)NP(=O)(O)O)[C@@H](O)[C@H]2O)c(=O)[nH]1` [GppNHp], the “DEER pulse EPR inter-spin distance change upon nucleotide binding” value in assay [2] is given as “in the presence of GppNHp, GDP·AlFx or GDP (Figure 2c) reveal changes upon nt binding”.
